The values that follow come from patent US9303017B2, “2,5-disubstituted-pyridyl nicotinic ligands, and methods of use thereof” (Georgetown University, priority 2011, dated 2016).

One experiment concerns the target α2β4 nAChR (Rattus norvegicus (Rat), UniProt P12389+P12392). As to the kind of experiment: [3H]-epibatidine competition binding, α2β4. The note with it: Table 1; mean of 3 to 5 measurements. On the procedure:
(§1) In Vitro Binding Affinities for nAChR Subtypes. […] To determine selectivities of these compounds in binding assays among the three predominant nAChR subtypes, α3β4, α4β2 and α7, the ratios of Ki values (α3β4/α4β2 and α7/α4β2) were determined.
(§2) Cell Lines and Cell Culture. The cell lines expressing defined rat nAChR subtypes were established previously by stably transfecting HEK 293 cells with rat nAChR subunit genes. The cell line expressing human α4β2 nAChRs, YXα4β2H1, was established recently. These cell lines were maintained in minimum essential medium (MEM) supplemented with 10% fetal bovine serum, 100 units/mL penicillin G, […] and selective antibiotics at 37° C. with 5% CO2 in a humidified incubator. Fetal bovine serum was provided by Gemini Bio-Products (Woodland, Calif.). […]
(§3) Briefly, cultured cells at >80% confluence were removed from their flasks (80 cm^2) with a disposable cell scraper and placed in 10 mL of 50 mM Tris.HCl buffer (pH 7.4, 4° C.). […] The filter-retained radioactivity was measured by liquid scintillation counting. […] Data from competition binding assays were analyzed using Prism 5 (GraphPad Software, San Diego, Calif.).
(§4) Pharmacological Properties. We measured the in vitro binding affinities of the ligands for defined receptor subtypes (α2β2, α2β4, α3β2, α3β4, α4β2, α4β4, α6β2, α6β4, and α7) expressed in stably transfected cell lines. […]

A further experiment addresses α4β4 nAChR (Rattus norvegicus (Rat), UniProt P09483+P12392). The experiment in a line: [3H]-epibatidine competition binding, α4β4. To be noted: Table 1; mean of 3 to 5 measurements. The protocol: as §1, §2, §3, §4
Another experiment has as its target α3β2 nAChR (Rattus norvegicus (Rat), UniProt P04757+P12390). The experiment in a line: [3H]-epibatidine competition binding, α3β2. The note with it: Table 1; mean of 3 to 5 measurements. On the procedure:
as §1, §2, §3, §4

The target of the next experiment is α4β2 nAChR (Rattus norvegicus (Rat), UniProt P09483+P12390). The experiment in a line: biochemical. It is filed as binding. The note with it: for Ki: read-out: Ki α4β2. On the procedure:
as §1
(§5) Cell Lines and Cell Culture. The cell lines expressing defined rat nAChR subtypes were established previously by stably transfecting HEK 293 cells with rat nAChR subunit genes. The cell line expressing human α4β2 nAChRs, YXα4β2H1, was established recently. These cell lines were maintained in minimum essential medium (MEM) supplemented with 10% fetal bovine serum, 100 units/mL penicillin G, […] and selective antibiotics at 37° C. with 5% CO2 in a humidified incubator. Fetal bovine serum was provided by Gemini Bio-Products (Woodland, Calif.). Tissue culture medium and antibiotics were obtained from Invitrogen Corporation (Carlsbad, Calif.), unless otherwise stated.
(§6) Briefly, cultured cells at >80% confluence were removed from their flasks (80 cm^2) with a disposable cell scraper and placed in 10 mL of 50 mM Tris.HCl buffer (pH 7.4, 4° C.). The cell suspension was centrifuged at 10,000×g for 5 min and the pellet was collected. The cell pellet was then homogenized in 10 mL buffer with a polytron homogenizer and centrifuged at 36,000 g for 10 min at 4° C. The membrane pellet was resuspended in fresh buffer, and aliquots of the membrane preparation were used for binding assays. […] Bound and free ligands were separated by vacuum filtration through Whatman GF/C filters treated with 0.5% polyethylenimine. The filter-retained radioactivity was measured by liquid scintillation counting. Specific binding was defined as the difference between total binding and nonspecific binding. Data from competition binding assays were analyzed using Prism 5 (GraphPad Software, San Diego, Calif.).
(§7) Pharmacological Properties. We measured the in vitro binding affinities of the ligands for defined receptor subtypes (α2β2, α2β4, α3β2, α3β4, α4β2, α4β4, α6β2, α6β4, and α7) expressed in stably transfected cell lines. […] Rat forebrain homogenates were included to allow comparison between the heterologous and native α4β2 and α7 nAChRs. See Table 1 for binding affinity values (Ki) of the ligands at the three major nAChR subtypes (α3β4. α4β2 and α7).

For another experiment, the target named is human α4β2 nAChRs (Homo sapiens (Human), UniProt P17787+P43681). As to the kind of experiment: 86Rb+ efflux assay (activation and desensitization), α4β2. The class given is cell-based. To be noted: for Emax α4β2 nAChRs: agonist efficacy normalized to Emax of nicotine, ND = no significant stimulated efflux detected; for IC50: desensitization. On the procedure:
(§8) In Vitro Effects on nAChR Function. […] Their agonist activities were assessed by measuring stimulated ^86Rb^+ efflux from stably transfected cells, either expressing human α4β2 nAChRs or rat α3β4 receptors.
as §5
(§9) ^86Rb^+ Efflux Assay. Functional properties of compounds at nAChRs expressed in the transfected cells were measured using ^86Rb^+ efflux assays as described previously. In brief, cells expressing human α4β2 or rat α3β4 nAChRs were plated into 24-well plates coated with poly-D-lysine. The plated cells were grown at 37° C. for 18 to 24 hour to reach 85-95% confluence. The cells were then incubated in growth medium (0.5 mL/well) containing ^86Rb^+ (2 μCi/mL) for 4 hour at 37° C. The loading mixture was then aspirated, and the cells were washed four times with 1 mL buffer (15 mM HEPES, 140 mM NaCl, 2 mM KCl, 1 mM MgSO4, 1.8 mM CaCl2, 11 mM Glucose, pH 7.4). One mL of buffer with or without compounds to be tested was then added to each well. After incubation for 2 min, the assay buffer was collected for measurements of ^86Rb^+ released from the cells. Cells were then lysed by adding 1 mL of 100 mM NaOH to each well, and the lysate was collected for determination of the amount of ^86Rb^+ that was in the cells at the end of the efflux assay. Radioactivity of assay samples and lysates was measured by liquid scintillation counting. Total loading (cpm) was calculated as the sum of the assay sample and the lysate of each well. The amount of ^86Rb^+ efflux was expressed as a percentage of ^86Rb^+ loaded. […] For obtaining EC50 and Emax values, stimulation curves were constructed in which 8 different concentrations of a ligand were included in the assay. […] EC50, Emax and IC50(10′) values were determined by nonlinear least-squares regression analyses (GraphPad, San Diego, Calif.).
(§10) The functional properties of the ligands were determined by ^86Rb^+ efflux assays in cells expressing α3β4 and α4β2 nAChR subtypes. The functional activity of each ligand was measured for its agonism, antagonism and desensitization ability. Agonist activity for each of the ligands was tested at eight different concentrations. […] The full concentration-effect curves generated potency (EC50) and efficacy (Emax) of each ligand. […] We tested each ligand for antagonist activity at eight concentrations. The potency (IC50(0′)) of each ligand as an antagonist was derived from the full concentration-effect curves.

A further experiment has as its target α2β2 nAChR (Rattus norvegicus (Rat), UniProt P12389+P12390). The experiment in a line: [3H]-epibatidine competition binding, α2β2. The note with it: Table 1; mean of 3 to 5 measurements. On the procedure:
as §1, §2, §3, §4

The next experiment addresses α3β4 nAChR (Rattus norvegicus (Rat), UniProt P04757+P12392). As to the kind of experiment: [3H]-epibatidine competition binding, α3β4. The protocol: as §1, §5, §6, §7
The target in the next experiment is α7 nAChR (Rattus norvegicus (Rat), UniProt Q05941). It is filed as binding. The protocol: as §1, §5, §6, §7
The next experiment has as its target rat α3β4 nAChRs (Rattus norvegicus (Rat), UniProt P04757+P12392). The experiment in a line: 86Rb+ efflux assay (activation and desensitization), α3β4. The class given is cell-based. The protocol: as §8, §5, §9, §10
Setting [1] is: Table 1, mean of 3 to 5 measurements.
The mark [2] stands for this setting: 10 min pre-treatment, Table 3 (Example 4), read-out: IC50(10′) α4β2.
Where [3] appears, read: 10 min pre-incubation before 100 μM nicotine, Table 2, read-out: IC50(10′) α4β2 nAChRs.
Where [4] appears, read: read-out: IC50(10′) α3β4 nAChRs.

SMILES strings stand for the structures. Where two headings read alike, the source gives them in different places.

For orientation: Ki means a dissociation constant, usually derived from enzyme kinetics or from competition with a known ligand. One may read the IC50 as the concentration that gives 50% inhibition. In the case of `Cc1ncc(C#CCCCCCl)cc1OC[C@@H]1CCN1` [(S)-21, (S)-3-(azetidin-2-ylmethoxy)-5-(6-chlorohex-1-ynyl)-2-methylpyridine], the Ki on α2β4 nAChR was 29 µM; at α4β4 nAChR it was 3.7 µM; on α3β2 nAChR, 0.3 µM; at α4β2 nAChR (setting [1]) it was 0.0053 µM; on α4β2 nAChR (Table 3 (Example 4)) it was 0.0047 µM; at α2β2 nAChR, 0.0086 µM. In addition, the Ki on α3β4 nAChR (setting [1]) came to 92 µM; at α3β4 nAChR (Table 3 (Example 4)) it was 86 µM; on α7 nAChR (setting [1]), 67 µM; on α7 nAChR (Table 3 (Example 4)) it was 67.2 µM. In addition, the “Ki Ratio α3β4/α4β2” value at α4β2 nAChR (selectivity for α4β2 over α3β4) is listed as 17,000. Besides, the “Ki Ratio α7/α4β2” value on α4β2 nAChR (selectivity for α4β2 over α7) is reported as 13,000. Also, at human α4β2 nAChRs, the “Emax α4β2 nAChRs” value was “didn't show detectable agonist activity”. The IC50 at human α4β2 nAChRs (setting [2]) is 0.27 µM; on human α4β2 nAChRs (setting [3]) it was 0.26 µM; at rat α3β4 nAChRs (read-out: IC50(10′) α3β4) it was 11 µM; on rat α3β4 nAChRs (setting [4]), over 10 µM.
In the case of `Cc1ncc(C#CCCCCF)cc1OC[C@@H]1CCN1` [(S)-22, (S)-3-(azetidin-2-ylmethoxy)-5-(6-fluorohex-1-ynyl)-2-methylpyridine], the Ki at α2β4 nAChR was found to be 24 µM; at α4β4 nAChR, 3 µM; at α3β2 nAChR it was 0.23 µM; at α2β2 nAChR, 0.0087 µM; at α3β4 nAChR (setting [1]), 150 µM; at α3β4 nAChR (Table 3 (Example 4)) it was 130 µM. Also, the inhibition constant Ki at α7 nAChR (setting [1]) and at α7 nAChR (Table 3 (Example 4)) was 150 µM in each case. The “Emax α4β2 nAChRs” value at human α4β2 nAChRs is on record as “didn't show detectable agonist activity”. Moreover, the IC50 at human α4β2 nAChRs (setting [2]) is 0.14 µM; at human α4β2 nAChRs (setting [3]), 0.13 µM; on rat α3β4 nAChRs (read-out: IC50(10′) α3β4), 13 µM; on rat α3β4 nAChRs (setting [4]), over 10 µM.
